Measured values published in patent US20160158200A1, “Combinations of Hepatitis C Virus Inhibitors” (priority 2013, published 2016).

System: HCV genotype-1a variant with glutamine 30 changed to glutamate in the NS5A protein
Type: cell-based
Conditions: test compound titrated with BMS-790052 fixed at 200 nM; genotype 1a Q30E replicon
Summary of the method: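 Synergy was assessed by combining several fixed amounts of an NS5A-targeting compound with a titration of the second compound of interest.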

Structure (SMILES) | Fold-Synergistic 1a (Q30E)
C[C@H]1C[C@@H](c2nc(-c3ccc(-c4ccc(-c5c[nH]c([C@@H]6C[C@H](C)CN6C(=O)C(=O)N6CCC(F)(F)CC6)n5)cc4)cc3)c[nH]2)N(C(=O)C(=O)N2CCC(F)(F)CC2)C1 [Compound L-143] | >100 fold
CC(C)[C@H](NC(=O)C(F)(F)c1ccccc1)c1ncc(-c2ccc(-c3ccc(-c4cnc([C@@H](NC(=O)C(F)(F)c5ccccc5)C(C)C)[nH]4)cc3)cc2)[nH]1 [Compound P-97] | >100 fold
CC(C)[C@H](NC(=O)c1sccc1F)c1ncc(-c2ccc(-c3ccc(-c4cnc([C@@H](NC(=O)c5sccc5F)C(C)C)[nH]4)cc3)cc2)[nH]1 [Compound Y-28] | >100 fold
C[C@@H]1CN(C(=O)C(=O)N[C@H](c2nc(-c3ccc(-c4ccc(-c5c[nH]c([C@@H](NC(=O)C(=O)N6C[C@@H](C)O[C@@H](C)C6)C6(C)CC6)n5)cc4)cc3)c[nH]2)C2(C)CC2)C[C@H](C)O1 [Compound W-61] | >100 fold
COC1(C(=O)C(=O)N[C@H](c2ncc(-c3ccc(-c4ccc(-c5cnc([C@@H](NC(=O)C(=O)C6(OC)CCC6)C(C)C)[nH]5)cc4)cc3)[nH]2)C(C)C)CCC1 [Compound P-116] | >100 fold
Cc1oncc1C(=O)N[C@H](c1ncc(-c2ccc(-c3ccc(-c4cnc([C@@H](NC(=O)c5cnoc5C)C(C)C)[nH]4)cc3)cc2)[nH]1)C(C)C [Compound S-104] | >100 fold
CC(C)[C@H](NC(=O)c1ccc(F)cc1)c1ncc(-c2ccc(-c3ccc(-c4cnc([C@@H](NC(=O)c5ccc(F)cc5)C(C)C)[nH]4)cc3)cc2)[nH]1 [Compound S-82] | >100 fold
CC(C)(C)[C@H](NS(=O)(=O)C1(C)CC1)c1nc(-c2ccc(-c3ccc(-c4c[nH]c([C@@H](NS(=O)(=O)C5(C)CC5)C(C)(C)C)n4)cc3)cc2)c[nH]1 [Compound L-120] | >100 fold
CC(C)(C)OC(=O)NC1(C(=O)N[C@H](c2nc(-c3ccc(-c4ccc(-c5c[nH]c([C@@H](NC(=O)C6(NC(=O)OC(C)(C)C)CCCCC6)C(C)(C)C)n5)cc4)cc3)c[nH]2)C(C)(C)C)CCCCC1.O=C(O)C(F)(F)F.O=C(O)C(F)(F)F [Compound L-7] | >100 fold
CC(C)(C)[C@H](NC(=O)C1CCC(F)(F)CC1)c1nc(-c2ccc(-c3ncc(-c4c[nH]c([C@@H](NC(=O)C5CCC(F)(F)CC5)C(C)(C)C)n4)cn3)cc2)c[nH]1 [Compound N-104] | >100 fold
Cc1cc(C(=O)N[C@H](c2ncc(-c3ccc(-c4ccc(-c5cnc([C@@H](NC(=O)c6cc(C)oc6C(F)(F)F)C(C)C)[nH]5)cc4)cc3)[nH]2)C(C)C)c(C(F)(F)F)o1 [Compound S-102] | >100 fold
CC(C)[C@H](NC(=O)C(=O)c1ccncc1F)c1ncc(-c2ccc(-c3ccc(-c4cnc([C@@H](NC(=O)C(=O)c5ccncc5F)C(C)C)[nH]4)cc3)cc2)[nH]1 [Compound P-121] | >100 fold
CC(C)(C)C(NC(=O)C1COCCN1CC(F)(F)F)c1nc(-c2ccc(-c3ccc(-c4c[nH]c(C(NC(=O)C5COCCN5CC(F)(F)F)C(C)(C)C)n4)cc3)cc2)c[nH]1 [Compound L-68] | >100 fold
CC(C)(C(=O)N[C@H](c1nc(-c2ccc(-c3ccc(-c4c[nH]c([C@@H](NC(=O)C(C)(C)C(O)c5ccccc5F)C(C)(C)C)n4)cc3)cc2)c[nH]1)C(C)(C)C)C(O)c1ccccc1F (single isomer, unassigned) [Compound N-124C] | >100 fold
COC(C)(C)C(=O)N[C@H](c1nc(-c2ccc(-c3ccc(-c4c[nH]c([C@@H](NC(=O)C(C)(C)OC)C(C)(C)C)n4)c(C)c3)cc2)c[nH]1)C(C)(C)C.O=C(O)C(F)(F)F [Compound N-85] | >100 fold
CC(C)[C@H](NC(=O)C1CCC(F)(F)CC1)c1ncc(-c2ccc(-c3ccc(-c4cnc([C@@H](NC(=O)C5CCC(F)(F)CC5)C(C)C)[nH]4)cc3)cc2)[nH]1 [Compound P-79] | >100 fold
CC(C)(C)OC(=O)CC(C(=O)NC(c1nc(-c2ccc(-c3ccc(-c4c[nH]c(C(NC(=O)C(CC(=O)OC(C)(C)C)C5CCCC5)C(C)(C)C)n4)cc3)cc2)c[nH]1)C(C)(C)C)C1CCCC1 (stereo not shown) [Compound S-272] | >100 fold
Cc1ccoc1C(=O)N[C@H](c1ncc(-c2ccc(-c3ccc(-c4cnc([C@@H](NC(=O)c5occc5C)C(C)C)[nH]4)cc3)cc2)[nH]1)C(C)C [Compound S-90] | >100 fold
C=C1CCC(C(=O)N[C@H](c2nc(-c3ccc(-c4ccc(-c5c[nH]c([C@@H](NC(=O)C6CCC(=C)CC6)C(C)(C)C)n5)cc4)cc3)c[nH]2)C(C)(C)C)CC1 [Compound N-118] | >100 fold
CC(C)C(NC(=O)C1CC(F)CN1C(=O)OC(C)(C)C)c1nc(-c2ccc(-c3ccc(-c4c[nH]c(C(NC(=O)C5CC(F)CN5C(=O)OC(C)(C)C)C(C)C)n4)cc3)cc2)c[nH]1 (stereo not shown) [Compound W-181] | >100 fold

Structure (SMILES) | Fold-Synergistic 1a (Q30E)
CC(C)(C)[C@H](NC(=O)C1C2CC(F)(F)CC21)c1nc(-c2ccc(-c3ccc(-c4c[nH]c([C@@H](NC(=O)C5C6CC(F)(F)CC65)C(C)(C)C)n4)cc3)cc2)c[nH]1 (stereo partly shown) [Compound Y-7] | >100 fold
CC1(C)CCN(C(=O)c2ccc(-c3ccccc3)cc2)C1c1nc(-c2ccc(-c3ccc(-c4c[nH]c(C5N(C(=O)c6ccc(-c7ccccc7)cc6)CCC5(C)C)n4)cc3)cc2)c[nH]1 (stereo not shown) [Compound W-227] | >100 fold
CC(C)N(C(=O)C(=O)N[C@H](c1nc(-c2ccc(-c3ccc(-c4c[nH]c([C@@H](NC(=O)C(=O)N(C(C)C)C5CC5)C(C)(C)C)n4)cc3)cc2)c[nH]1)C(C)(C)C)C1CC1 [Compound W-49] | >100 fold
CC(C)(C(=O)N[C@H](c1nc(-c2ccc(-c3ccc(-c4cnc([C@@H](NC(=O)C(C)(C)C5CCCO5)C(C)(C)C)[nH]4)cc3)cc2)c[nH]1)C(C)(C)C)C1CCCO1 (single isomer, unassigned) [Compound B170] | >100 fold
CC(C)(C(=O)N[C@H](c1nc(-c2ccc(-c3ccc(-c4c[nH]c([C@@H](NC(=O)C(C)(C)C(O)c5ccccn5)C(C)(C)C)n4)cc3)cc2)c[nH]1)C(C)(C)C)C(O)c1ccccn1 (single isomer, unassigned) [Compound N-128A] | >100 fold
COC(C)(C)C(=O)N[C@H](c1nc(-c2ccc(-c3ccc(-c4c[nH]c([C@@H](NC(=O)C(C)(C)OC)C(C)C)n4)cc3F)cc2)c[nH]1)C(C)C.O=C(O)C(F)(F)F [Compound N-96] | >100 fold
CC(C)(C)[C@H](NC(=O)C1(COCc2ccccc2)COC1)c1nc(-c2ccc(-c3ccc(-c4c[nH]c([C@@H](NC(=O)C5(COCc6ccccc6)COC5)C(C)(C)C)n4)cc3)cc2)c[nH]1 [Compound L-124] | >100 fold
O=C(c1cc2ccccc2[nH]1)N1CCC[C@H]1c1ncc(-c2ccc(-c3ccc(-c4cnc([C@@H]5CCCN5C(=O)c5cc6ccccc6[nH]5)[nH]4)cc3)cc2)[nH]1 [Compound S-120] | <10 fold
CC(C)(C)[C@H](NC(=O)C1(c2ccc(Cl)cc2)CCC1)c1nc(-c2ccc(-c3ccc(-c4c[nH]c([C@@H](NC(=O)C5(c6ccc(Cl)cc6)CCC5)C(C)(C)C)n4)cc3)cc2)c[nH]1 [Compound N-57] | >100 fold
CC(C)(C)[C@H](NC(=O)C1C2CCOC21)c1nc(-c2ccc(-c3ccc(-c4cnc([C@@H](NC(=O)C5C6CCOC65)C(C)(C)C)[nH]4)cc3)cc2)c[nH]1 (single isomer, unassigned) [Compound B-164] | >100 fold
CC(C)[C@H](NC(=O)c1coc2ccccc12)c1ncc(-c2ccc(-c3ccc(-c4cnc([C@@H](NC(=O)c5coc6ccccc56)C(C)C)[nH]4)cc3)cc2)[nH]1 [Compound P-100] | >100 fold
CC(C)(C)[C@H](NC(=O)C1CC12CCC2)c1nc(-c2ccc(-c3ccc(-c4cnc([C@@H](NC(=O)C5CC56CCC6)C(C)(C)C)[nH]4)cc3)cc2)c[nH]1 (stereo partly shown) [Compound B-183] | >100 fold
CCOC(=O)C(=O)N[C@H](c1nc(-c2ccc(-c3ccc(-c4c[nH]c([C@@H](NC(=O)C(=O)OCC)C(C)(C)C)n4)cc3)cc2)c[nH]1)C(C)(C)C [Compound W-30] | >100 fold
CC(C)[C@H](NC(=O)c1ccccn1)c1ncc(-c2ccc(-c3ccc(-c4cnc([C@@H](NC(=O)c5ccccn5)C(C)C)[nH]4)cc3)cc2)[nH]1 [Compound S-46] | >10 fold
[2H]C([2H])([2H])C(=O)NC1(C(=O)N[C@H](c2nc(-c3ccc(-c4ccc(-c5c[nH]c([C@@H](NC(=O)C6(NC(=O)C([2H])([2H])[2H])CCCCC6)C(C)(C)C)n5)cc4)cc3)c[nH]2)C(C)(C)C)CCCCC1 [Compound W-272] | >100 fold
CC(C)(C)[C@H](N)c1nc(-c2ccc(-c3ccc(-c4c[nH]c([C@@H](Nc5ncc(Br)cn5)C(C)(C)C)n4)cc3)cc2)c[nH]1 [Compound W-16B] | <10 fold
CC(C)(C(=O)N[C@H](c1nc(-c2ccc(-c3ccc(-c4c[nH]c([C@@H](NC(=O)C(C)(C)C(O)c5ccccc5)C(C)(C)C)n4)cc3)cc2)c[nH]1)C(C)(C)C)C(O)c1ccccc1 (single isomer, unassigned) [Compound N-127C] | >100 fold
CC(C)(C)C(=O)NC1(C(=O)N[C@H](c2nc(-c3ccc(-c4ccc(-c5c[nH]c([C@@H](NC(=O)C6(NC(=O)C(C)(C)C)CCCCC6)C(C)(C)C)n5)cc4)cc3)c[nH]2)C(C)(C)C)CCCCC1 [Compound W-262] | >100 fold
CC(O)C1(C(=O)N[C@H](c2nc(-c3ccc(-c4ccc(-c5c[nH]c([C@@H](NC(=O)C6(C(C)O)CCCCC6)C(C)(C)C)n5)cc4)cc3)c[nH]2)C(C)(C)C)CCCCC1 (single isomer, unassigned) [Compound N-152B] | >100 fold
CC1(C)CCN(C(=O)C(=O)N2CCC(F)(F)CC2)C1c1nc(-c2ccc(-c3ccc(-c4c[nH]c(C5N(C(=O)C(=O)N6CCC(F)(F)CC6)CCC5(C)C)n4)cc3)cc2)c[nH]1 (stereo not shown) [Compound W-218] | >10 fold
